Laboratory results taken from patent publication US10610520B2, “Heterocyclic compound” (Takeda Pharmaceutical Company Limited, priority 2016, dated 2020).

Target: T1, His-hMAGL (recombinant polyhistidine tagged human MAGL protein) (Homo sapiens, UniProt Q99685)
T1 construct: made in house; host or cells: E. coli BL21(DE3)
T1 sequence (Q99685 1-303): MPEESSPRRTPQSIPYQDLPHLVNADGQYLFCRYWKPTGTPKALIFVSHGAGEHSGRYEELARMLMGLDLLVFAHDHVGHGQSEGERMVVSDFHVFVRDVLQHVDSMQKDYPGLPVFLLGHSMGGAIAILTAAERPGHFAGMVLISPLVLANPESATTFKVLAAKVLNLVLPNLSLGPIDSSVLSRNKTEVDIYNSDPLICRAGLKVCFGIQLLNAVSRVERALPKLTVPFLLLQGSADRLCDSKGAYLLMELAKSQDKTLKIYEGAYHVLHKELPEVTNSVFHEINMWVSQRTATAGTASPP
Test: Measurement of MAGL inhibitory activity (arachidonic acid production from 2-arachidonylglycerol, RapidFire-mass spectrometry)
Type: biochemical
Conditions: MAGL inhibitory rate, test compound 10 μM, 60 min preincubation, 2-arachidonylglycerol substrate
Protocol: The His-hMAGL obtained above was diluted with enzyme reaction buffer (10 mM Tris-HCl, pH 7.5, 1 mM EDTA, 0.025 (w/v) % Triton X-100, 0.01% Bovine serum albumin) to a concentration of 7.5 ng/mL. […] Thereafter, to each well was added 5 μL of 150 μM 2-arachidonylglycerol (Tocris Bioscience), and the mixture was incubated at room temperature for 10 min. Then, 10 μL of 2% formic acid (Wako Pure Chemical Industries, Ltd.) was added to stop the reaction. Furthermore, acetonitrile (50 μL) containing 3 μM arachidonic acid-d8 (Cayman Chemical Company) was added and the mixture was stirred.
The amount of arachidonic acid in the obtained enzyme reaction mixture was calculated by measuring by RapidFire-mass spectrometry and correcting by the amount of arachidonic acid-d8. High Throughput online solid phase extraction was performed using RapidFire 300™ system (Agilent Technologies, Inc.). Samples were loaded on SPE C4 cartridge (Agilent Technologies, Inc.) and desalted with 0.2 (v/v) % acetic acid (Wako Pure Chemical Industries, Ltd.) in ultrapure water/acetonitrile (70/30, v/v) at a flow rate of 1.5 mL/min, eluted at a flow rate of 0.5 mL/min with 0.2 (v/v) % acetic acid dissolved in acetonitrile/ultrapure water (90/10, v/v), and injected into the mass spectrometry part. The injection needle was washed with ultrapure water (500 millisecond) and acetonitrile (500 millisecond) to minimize carry-over. […] The RapidFire300 system was controlled by RapidFire UI software version 3.6 (Agilent Technologies, Inc.).
The mass spectrometry of the resultant product was performed using API4000™ triple quadrupole mass spectrometer (AB SCIEX) equipped with an electrospray ion sauce (TurboIon Spray™) in a negative selected reaction monitoring (SRM) mode. The conditions of SRM are shown below. The parameters of the instrument were optimized as follows: capillary temperature 600° C., ion spray voltage −4.5 kV, collision gas 8, curtain gas 15 psi, ion source gas 1 60 psi, ion source gas 2 60 psi. The mass spectrometer was controlled by Analyst™ software version 1.5.1 (AB SCIEX). The peak area integration was analyzed using RapidFire integrator software version 3.6 (Agilent Technologies, Inc.).
MAGL inhibitory rate (%) was calculated according to the following calculation formula. (1-(arachidonic acid production amount of test compound addition group−arachidonic acid production amount of enzyme-free group)÷(arachidonic acid production amount of test compound-free group−arachidonic acid production amount of enzyme-free group))×100

| SMILES | inhibition at 10 µM [%] | % inhibition (10 μM) (10 µM) [%] |
| --- | --- | --- |
| O=C1NC2(CO1)CN(C(=O)c1sc3c(F)c(OC(F)(F)F)ccc3c1C(F)F)C2 [Example 360, 2-((3-(difluoromethyl)-7-fluoro-6-(trifluoromethoxy)-1-benzothiophen-2-yl)carbonyl)-7-oxa-2,5-diazaspiro[3.4]octan-6-one] | 100 |  |
| O=C1NC2(CO1)CN(C(=O)c1sc3cc(C(F)F)ccc3c1Cl)C2 [Example 278, 2-((3-chloro-6-(difluoromethyl)-1-benzothiophen-2-yl)carbonyl)-7-oxa-2,5-diazaspiro[3.4]octan-6-one] | 101 |  |
| COc1ccc2sc(C(=O)N3CC4(CCC(=O)N4)C3)c(Br)c2c1 [Example 152, 2-((3-bromo-5-methoxy-1-benzothiophen-2-yl)carbonyl)-2,5-diazaspiro[3.4]octan-6-one] | 100 |  |
| O=C1NC2(CCO1)CN(C(=O)c1sc3cccc(OC(F)(F)F)c3c1Cl)C2 [Example 283, 2-((3-chloro-4-(trilfuoromethoxy)-1-benzothiophen-2-yl)carbonyl)-7-oxa-2,5-diazaspiro[3.5]nonan-6-one] | 99 |  |
| O=C1CCC2(CN(C(=O)c3sc4cc(-c5cc(F)ccc5F)ccc4c3Cl)C2)N1 [Example 212, 2-((3-chloro-6-(2,5-difluorophenyl)-1-benzothiophen-2-yl)carbonyl)-2,5-diazaspiro[3.4]octan-6-one] | 100 |  |
| O=C1NC2(CO1)CN(C(=O)c1ccc(-c3cccc(C4(C(F)(F)F)CC4)c3)c(F)c1)C2 [Example 335, 2-((2-fluoro-3′-(1-(trifluoromethyl)cyclopropyl)biphenyl-4-yl)carbonyl)-7-oxa-2,5-diazaspiro[3.4]octan-6-one] | 100 |  |
| O=C1NC2(CO1)CN(C(=O)c1sc3cccc(Cl)c3c1Cl)C2 [Example 289, 2-((3,4-dichloro-1-benzothiophen-2-yl)carbonyl)-7-oxa-2,5-diazaspiro[3.4]octan-6-one] | 101 |  |
| O=C1CCC2(CN(C(=O)c3sc4cc(-c5cccc(F)c5Cl)ccc4c3Cl)C2)N1 [Example 220, 2-((3-chloro-6-(2-chloro-3-fluorophenyl)-1-benzothiophen-2-yl)carbonyl)-2,5-diazaspiro[3.4]octan-6-one] | 100 |  |
| O=C1NC2(CO1)CN(C(=O)c1sc3cc(C4CC4)cc(F)c3c1C1CC1)C2 [Example 312, 2-((3,6-dichloropropyl-4-fluoro-1-benzothiophen-2-yl)carbonyl)-7-oxa-2,5-diazaspiro[3.4]octan-6-one] | 101 |  |
| Cc1c(OC(F)F)cc(F)c2c(Cl)c(C(=O)N3CC4(COC(=O)N4)C3)sc12 [Example 304, 2-((3-chloro-6-(difluoromethoxy)-4-fluoro-7-methyl-1-benzothiophen-2-yl)carbonyl)-7-oxa-2,5-diazaspiro[3.4]octan-6-one] | 100 |  |
| O=C1CCC2(CN(C(=O)N3CCC(Cc4ccc(Cl)cc4Cl)CC3)C2)N1 [Example 102, 2-((4-(2,4-dichlorobenzyl)piperidin-1-yl)carbonyl)-2,5-diazaspiro[3.4]octan-6-one] | 102 |  |
| COc1c(C(=O)N2CC3(COC(=O)N3)C2)sc2c(C(F)(F)F)cccc12 [Example 270, 2-((3-methoxy-7-(trifluoromethyl)-1-benzothiophen-2-yl)carbonyl)-7-oxa-2,5-diazaspiro[3.4]octan-6-one] | 100 |  |
| O=C1NC2(CCN(C(=O)c3sc4c(F)c(C(F)(F)F)ccc4c3Cl)C2)CO1 (centres unmarked) [Example 342, 7-((3-chloro-7-fluoro-6-(trifluoromethyl)-1-benzothiophen-2-yl)carbonyl)-3-oxa-1,7-diazaspiro[4.4]nonan-2-one] | 100 |  |
| O=C1NC2(CO1)CN(C(=O)c1sc3cc(OC(F)F)cc(C(F)(F)F)c3c1Cl)C2 [Example 292, 2-((3-chloro-6-(difluoromethoxy)-4-(trifluoromethyl)-1-benzothiophen-2-yl)carbonyl)-7-oxa-2,5-diazaspiro[3.4]octan-6-one] | 100 |  |
| O=C1CCC2(CN(C(=O)c3sc4cc(-c5cnc(C(F)(F)F)nc5)ccc4c3Cl)C2)N1 [Example 231, 2-((3-chloro-6-(2-(trifluoromethyl)pyrimidin-5-yl)-1-benzothiophen-2-yl)carbonyl)-2,5-diazaspiro[3.4]octan-6-one] | 97 |  |
| O=C1NC2(CO1)CN(C(=O)c1sc3cc(C4=CCC(F)(F)CC4)cc(F)c3c1Cl)C2 [Example 309, 2-((3-chloro-6-(4,4-difluorocyclohex-1-en-1-yl)-4-fluoro-1-benzothiophen-2-yl)carbonyl)-7-oxa-2,5-diazaspiro[3.4]octan-6-one] | 101 |  |
| O=C1CCC2(CN(C(=O)c3cc4cc(OC(F)(F)F)ccc4s3)C2)N1 [Example 252, 2-((5-(trifluoromethoxy)-1-benzothiophen-2-yl)carbonyl)-2,5-diazaspiro[3.4]octan-6-one] | 98 |  |
| Cc1cc(F)cc(-c2ccc3c(Cl)c(C(=O)N4CC5(CCC(=O)N5)C4)sc3c2)c1 [Example 211, 2-((3-chloro-6-(3-fluoro-5-methylphenyl)-1-benzothiophen-2-yl)carbonyl)-2,5-diazaspiro[3.4]octan-6-one] | 99 |  |
| O=C1NC2(CO1)CN(C(=O)c1sc3c(F)c(OC(F)(F)F)ccc3c1Cl)C2 [Example 279, 2-((3-chloro-7-fluoro-6-(trifluoromethoxy)-1-benzothiophen-2-yl)carbonyl)-7-oxa-2,5-diazaspiro[3.4]octan-6-one] | 100 |  |
| O=C1CCC2(CN(C(=O)c3sc4cc(-c5cccc(C(F)(F)F)c5)ccc4c3Cl)C2)N1 [Example 196, 2-((3-chloro-6-(3-(trifluoromethyl)phenyl)-1-benzothiophen-2-yl)carbonyl)-2,5-diazaspiro[3.4]octan-6-one] | 99 |  |
| CC(Oc1ccc(F)cc1Cl)C1CN(C(=O)N2CC3(CCC(=O)N3)C2)C1 (centres unmarked) [Example 4, 2-((3-(1-(2-chloro-4-fluorophenoxy)ethyl)azetidin-1-yl)carbonyl)-2,5-diazaspiro[3.4]octan-6-one] | 98 |  |
| O=C1CCC2(CN(C(=O)c3ccc(-c4ccc(C(F)(F)F)c(Cl)c4)cc3)C2)N1 [Example 44, 2-((3′-chloro-4′-(trifluoromethyl)biphenyl-4-yl)carbonyl)-2,5-diazaspiro[3.4]octan-6-one] | 100 |  |
| Cc1c(OC(F)(F)F)ccc2c(Cl)c(C(=O)N3CCC4(COC(=O)N4)C3)sc12 (centres unmarked) [Example 330, 7-((3-chloro-7-methyl-6-(trifluoromethoxy)-1-benzothiophen-2-yl)carbonyl)-3-oxa-1,7-diazaspiro[4.4]nonan-2-one] |  | 96 |
| CC1(c2cccc(-c3cc(Cl)c(C(=O)N4CC5(COC(=O)N5)C4)s3)c2)CC1 [Example 281, 2-((3-chloro-5-(3-(1-methylcyclopropyl)phenyl)-2-thienyl)carbonyl)-7-oxa-2,5-diazaspiro[3.4]octan-6-one] | 100 |  |
| O=C1CCC2(CN(C(=O)c3ccc(-c4ccc(C5(C(F)(F)F)CC5)cc4)cc3)C2)N1 [Example 63, 2-((4′-(1-(trifluoromethyl)cyclopropyl)biphenyl-4-yl)carbonyl)-2,5-diazaspiro[3.4]octan-6-one] | 99 |  |
| O=C1CCC2(CN(C(=O)c3ccc(-c4ccccc4)s3)C2)N1 [Example 126, 2-((5-phenyl-2-thienyl)carbonyl)-2,5-diazaspiro[3.4]octan-6-one] | 85 |  |
